Test results reported in US10899737B2, “Piperazine carbamates and methods of making and using same” (Lundbeck La Jolla Research Center, Inc., priority 2016, dated 2021).

Experiments:
Type in all cases: biochemical
ABHD6 [1] = biological target: T1, ABHD6 (Mus musculus, UniProt Q8R2Y0); experiment: In vitro competitive activity-based protein profiling (mouse), ABHD6; conditions: 1 μM inhibitor, mouse brain membrane fraction or cell lysates; read-out: ABHD6 % inh. 1 μM (mouse)
T1 construct: Proteomes (mouse brain membrane fraction or cell lysates); from tissue; host or cells: mouse brain membrane fraction or cell lysates
T1 sequence (Q8R2Y0 1-336): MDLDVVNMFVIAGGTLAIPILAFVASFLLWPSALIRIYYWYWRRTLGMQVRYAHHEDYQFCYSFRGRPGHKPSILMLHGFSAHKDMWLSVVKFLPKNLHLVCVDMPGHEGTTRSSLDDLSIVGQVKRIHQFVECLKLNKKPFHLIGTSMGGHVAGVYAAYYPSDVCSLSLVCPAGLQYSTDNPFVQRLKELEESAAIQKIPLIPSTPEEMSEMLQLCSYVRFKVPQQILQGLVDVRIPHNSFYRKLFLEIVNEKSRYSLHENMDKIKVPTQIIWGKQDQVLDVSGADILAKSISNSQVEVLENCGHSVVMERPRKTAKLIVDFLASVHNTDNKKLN
Procedure: (§1) In Vitro Competitive Activity-Based Protein Profiling (Mouse).
(§2) Proteomes (mouse brain membrane fraction or cell lysates) (50 μL, 1.0 mg/mL total protein concentration) were preincubated with varying concentrations of inhibitors at 37° C. After 30 min, FP-Rh (1.0 μL, 50 μM in DMSO) was added and the mixture was incubated for another 30 min at 37° C. Reactions were quenched with SDS loading buffer (50 μL-4×) and run on SDS-PAGE. Following gel imaging, serine hydrolase activity was determined by measuring fluorescent intensity of gel bands corresponding to MAGL and ABHD6 using ImageJ 1.49 k software. Data from this assay is shown in Table 1 (% inhibition at 1 μM).

MAGL [2] = biological target: T2, MAGL (Homo sapiens, UniProt Q99685); experiment: In vitro competitive activity-based protein profiling (human), MAGL; conditions: for inhibition at 1 µM: 1 μM inhibitor, human proteome, 30 min preincubation at 37° C, read-out: MAGL % inh. 1 μM (human); for IC50: human PC3
T2 construct: Proteomes (human prefrontal cortex or cell membrane fractions); from tissue
T2 sequence (Q99685 1-303): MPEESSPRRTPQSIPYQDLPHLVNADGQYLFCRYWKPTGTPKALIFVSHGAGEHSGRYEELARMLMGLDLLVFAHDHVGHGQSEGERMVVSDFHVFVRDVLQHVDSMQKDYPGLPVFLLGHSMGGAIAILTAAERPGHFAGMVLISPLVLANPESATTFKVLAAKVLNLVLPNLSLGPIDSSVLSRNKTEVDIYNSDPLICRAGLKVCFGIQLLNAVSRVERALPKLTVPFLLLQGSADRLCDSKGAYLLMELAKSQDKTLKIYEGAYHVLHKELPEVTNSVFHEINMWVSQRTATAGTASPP
Procedure: (§3) In Vitro Competitive Activity-Based Protein Profiling (Human).
(§4) Proteomes (human prefrontal cortex or cell membrane fractions) (50 μL, 1.0-2.0 mg/mL total protein concentration) were preincubated with varying concentrations of inhibitors at 37° C. After 30 min, FP-Rh or JW912 (1.0 μL, 50 μM in DMSO) was added and the mixture was incubated for another 30 min at room temperature. Reactions were quenched with SDS loading buffer (15 μL-4×) and run on SDS-PAGE. Following gel imaging, serine hydrolase activity was determined by measuring fluorescent intensity of gel bands corresponding to MAGL and ABHD6 using ImageJ 1.49 k software.

ABHD6 [3] = biological target: T3, ABHD6 (Homo sapiens, UniProt Q9BV23); experiment: In vitro competitive activity-based protein profiling (human), ABHD6; conditions: human PC3
T3 construct: Proteomes (human prefrontal cortex or cell membrane fractions); endogenous in cells; human prefrontal cortex
T3 sequence (Q9BV23 1-337): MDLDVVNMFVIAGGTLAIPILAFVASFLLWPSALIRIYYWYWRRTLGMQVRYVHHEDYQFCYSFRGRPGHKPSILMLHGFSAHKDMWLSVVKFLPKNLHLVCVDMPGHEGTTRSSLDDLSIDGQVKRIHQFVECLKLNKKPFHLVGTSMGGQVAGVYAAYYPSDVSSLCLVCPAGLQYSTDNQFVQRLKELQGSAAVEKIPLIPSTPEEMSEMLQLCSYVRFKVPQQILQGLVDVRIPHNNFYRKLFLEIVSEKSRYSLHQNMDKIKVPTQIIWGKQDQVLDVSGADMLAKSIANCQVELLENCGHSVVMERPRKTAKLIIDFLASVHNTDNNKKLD
Procedure: as §3, §4

MAGL [4] = biological target: T4, MAGL (Mus musculus, UniProt O35678); experiment: In vitro competitive activity-based protein profiling (mouse), MAGL; conditions: 1 μM inhibitor, mouse brain membrane fraction or cell lysates; read-out: MAGL % inh. 1 μM (mouse)
T4 construct: Proteomes (mouse brain membrane fraction or cell lysates); from tissue; host or cells: mouse brain membrane fraction or cell lysates
T4 sequence (O35678 1-303): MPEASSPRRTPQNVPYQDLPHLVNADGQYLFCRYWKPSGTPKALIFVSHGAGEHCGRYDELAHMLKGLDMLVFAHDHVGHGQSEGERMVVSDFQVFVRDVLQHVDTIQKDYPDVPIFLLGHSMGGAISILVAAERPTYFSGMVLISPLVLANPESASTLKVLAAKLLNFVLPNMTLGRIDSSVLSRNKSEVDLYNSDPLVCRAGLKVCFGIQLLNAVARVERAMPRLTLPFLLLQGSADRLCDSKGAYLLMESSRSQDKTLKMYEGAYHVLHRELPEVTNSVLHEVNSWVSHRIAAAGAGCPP
Procedure: as §1, §2

## O=C(O)[C@H]1CCCN(c2cc(CN3CCN(C(=O)OC(C(F)(F)F)C(F)(F)F)CC3)cc(C(F)(F)F)c2)C1 [Example 81, (S)-1-(3-((4-(((1,1,1,3,3,3-hexafluoropropan-2-yl)oxy)carbonyl)piperazin-1-yl)methyl)-5-(trifluoromethyl)phenyl)piperidine-3-carboxylic acid]
ABHD6 [1]
  inhibition at 1 µM: ≥ 75%
MAGL [2]
  inhibition at 1 µM: ≥ 75%
  IC50: ≤ 0.1 µM
ABHD6 [3]
  IC50: 0.1 to 1 µM
MAGL [4]
  inhibition at 1 µM: ≥ 75%

## CCC1(C(=O)O)CCN(c2cc(CN3CCN(C(=O)OC(C(F)(F)F)C(F)(F)F)CC3)cc(C(F)(F)F)c2)CC1 [Example 53, 4-ethyl-1-(3-((4-(((1,1,1,3,3,3-hexafluoropropan-2-yl)oxy)carbonyl)piperazin-1-yl)methyl)-5-(trifluoromethyl)phenyl)piperidine-4-carboxylic acid]
ABHD6 [1]
  inhibition at 1 µM: ≥ 75%
MAGL [2]
  inhibition at 1 µM: ≥ 75%
  IC50: ≤ 0.1 µM
ABHD6 [3]
  IC50: 0.1 to 1 µM
MAGL [4]
  inhibition at 1 µM: ≥ 75%

## O=C(O)CN1CCC2(C1)CN(c1cc(Cl)ccc1CN1CCN(C(=O)OC(C(F)(F)F)C(F)(F)F)CC1)C2 [Example 48, 2-(2-(5-chloro-2-((4-(((1,1,1,3,3,3-hexafluoropropan-2-yl)oxy)carbonyl)piperazin-1-yl)methyl)phenyl)-2,6-diazaspiro[3.4]octan-6-yl)acetic acid]
ABHD6 [1]
  inhibition at 1 µM: 0 to 25%
MAGL [2]
  inhibition at 1 µM: ≥ 75%
  IC50: ≤ 0.1 µM
ABHD6 [3]
  IC50: 1 to 10 µM
MAGL [4]
  inhibition at 1 µM: ≥ 75%

## O=C(O)[C@H]1CCCN(c2cc(C(F)(F)F)ccc2CN2CCN(C(=O)OC(C(F)(F)F)C(F)(F)F)CC2)C1 [Example 80, (S)-1-(2-((4-(((1,1,1,3,3,3-hexafluoropropan-2-yl)oxy)carbonyl)piperazin-1-yl)methyl)-5-(trifluoromethyl)phenyl)piperidine-3-carboxylic acid]
ABHD6 [1]
  inhibition at 1 µM: 25 to 50%
MAGL [2]
  inhibition at 1 µM: ≥ 75%
  IC50: ≤ 0.1 µM
ABHD6 [3]
  IC50: 0.1 to 1 µM
MAGL [4]
  inhibition at 1 µM: ≥ 75%

## CCCC1(C(=O)O)CCN(c2cc(CN3CCN(C(=O)OC(C(F)(F)F)C(F)(F)F)CC3)cc(C(F)(F)F)c2)CC1 [Example 52, 1-(3-((4-(((1,1,1,3,3,3-hexafluoropropan-2-yl)oxy)carbonyl)piperazin-1-yl)methyl)-5-(trifluoromethyl)phenyl)-4-propylpiperidine-4-carboxylic acid]
ABHD6 [1]
  inhibition at 1 µM: ≥ 75%
MAGL [2]
  inhibition at 1 µM: ≥ 75%
  IC50: ≤ 0.1 µM
ABHD6 [3]
  IC50: 0.1 to 1 µM
MAGL [4]
  inhibition at 1 µM: ≥ 75%

## CC(C)(C(=O)O)N1CC2CN(c3cc(C(F)(F)F)ccc3CN3CCN(C(=O)OC(C(F)(F)F)C(F)(F)F)CC3)CC2C1 (stereo not shown) [Example 16, 2-(5-(2-((4-(((1,1,1,3,3,3-Hexafluoropropan-2-yl)oxy)carbonyl)piperazin-1-yl)methyl)-5-(trifluoromethyl)phenyl)hexahydropyrrolo[3,4-c]pyrrol-2(1H)-yl)-2-methylpropanoic Acid]
ABHD6 [1]
  inhibition at 1 µM: 0 to 25%
MAGL [2]
  inhibition at 1 µM: ≥ 75%
  IC50: ≤ 0.1 µM
ABHD6 [3]
  IC50: 1 to 10 µM
MAGL [4]
  inhibition at 1 µM: ≥ 75%

## N#Cc1ccc(CN2CCN(C(=O)OC(C(F)(F)F)C(F)(F)F)CC2)c(N2CCC(C(=O)O)CC2)c1 [Example 69, 1-(5-cyano-2-((4-(((1,1,1,3,3,3-hexafluoropropan-2-yl)oxy)carbonyl)piperazin-1-yl)methyl)phenyl)piperidine-4-carboxylic acid]
ABHD6 [1]
  inhibition at 1 µM: 0 to 25%
MAGL [2]
  inhibition at 1 µM: ≥ 75%
  IC50: ≤ 0.1 µM
ABHD6 [3]
  IC50: 0.1 to 1 µM
MAGL [4]
  inhibition at 1 µM: ≥ 75%

## O=C(OC(C(F)(F)F)C(F)(F)F)N1CCN(Cc2cc(Cl)cc(C3(C(=O)O)CCCC3)c2)CC1 [Example 32, 1-(3-Chloro-5-((4-(((1,1,1,3,3,3-hexafluoropropan-2-yl)oxy)carbonyl)piperazin-1-yl)methyl)phenyl)cyclopentane-1-carboxylic Acid]
ABHD6 [1]
  inhibition at 1 µM: ≥ 75%
MAGL [2]
  inhibition at 1 µM: ≥ 75%
  IC50: ≤ 0.1 µM
ABHD6 [3]
  IC50: 0.1 to 1 µM
MAGL [4]
  inhibition at 1 µM: ≥ 75%

## O=C(O)C1CCN(Cc2cc(C(F)(F)F)ccc2CN2CCN(C(=O)OC(C(F)(F)F)C(F)(F)F)CC2)CC1 [Example 41, 1-(2-((4-(((1,1,1,3,3,3-hexafluoropropan-2-yl)oxy)carbonyl)piperazin-1-yl)methyl)-5-(trifluoromethyl)benzyl)piperidine-4-carboxylic acid]
ABHD6 [1]
  inhibition at 1 µM: 0 to 25%
MAGL [2]
  inhibition at 1 µM: ≥ 75%
  IC50: 0.1 to 1 µM
ABHD6 [3]
  IC50: 1 to 10 µM
MAGL [4]
  inhibition at 1 µM: ≥ 75%

## O=C(O)Cn1ccc(-c2ccccc2CN2CCN(C(=O)OC(C(F)(F)F)C(F)(F)F)CC2)n1 [Example 11, 2-(3-(2-((4-(((1,1,1,3,3,3-Hexafluoropropan-2-yl)oxy)carbonyl)piperazin-1-yl)methyl)phenyl)-1H-pyrazol-1-yl)acetic Acid]
ABHD6 [1]
  inhibition at 1 µM: 0 to 25%
MAGL [2]
  inhibition at 1 µM: ≥ 75%
  IC50: 0.1 to 1 µM
ABHD6 [3]
  IC50: 1 to 10 µM
MAGL [4]
  inhibition at 1 µM: ≥ 75%

## O=C(O)CN1CCCC1C1CCN(c2cc(Cl)ccc2CN2CCN(C(=O)OC(C(F)(F)F)C(F)(F)F)CC2)CC1 (stereo not shown) [Example 34, 2-(2-(1-(5-Chloro-2-((4-(((1,1,1,3,3,3-hexafluoropropan-2-yl)oxy)carbonyl)piperazin-1-yl)methyl)phenyl)piperidin-4-yl)pyrrolidin-1-yl)acetic Acid]
ABHD6 [1]
  inhibition at 1 µM: 50 to 75%
MAGL [2]
  inhibition at 1 µM: ≥ 75%
  IC50: ≤ 0.1 µM
ABHD6 [3]
  IC50: 1 to 10 µM
MAGL [4]
  inhibition at 1 µM: ≥ 75%

## CC1(C(=O)O)CCCN(c2cc(CN3CCN(C(=O)OC(C(F)(F)F)C(F)(F)F)CC3)cc(C(F)(F)F)c2)C1 (stereo not shown) [Example 56, 1-(3-((4-(((1,1,1,3,3,3-hexafluoropropan-2-yl)oxy)carbonyl)piperazin-1-yl)methyl)-5-(trifluoromethyl)phenyl)-3-methylpiperidine-3-carboxylic acid]
ABHD6 [1]
  inhibition at 1 µM: 0 to 25%
MAGL [2]
  inhibition at 1 µM: ≥ 75%
  IC50: ≤ 0.1 µM
ABHD6 [3]
  IC50: ≤ 0.1 µM
MAGL [4]
  inhibition at 1 µM: ≥ 75%

## O=C(O)C1COCCN1c1cc(C(F)(F)F)ccc1CN1CCN(C(=O)OC(C(F)(F)F)C(F)(F)F)CC1 (stereo not shown) [Example 71, 4-(2-((4-(((1,1,1,3,3,3-hexafluoropropan-2-yl)oxy)carbonyl)piperazin-1-yl)methyl)-5-(trifluoromethyl)phenyl)morpholine-3-carboxylic acid]
ABHD6 [1]
  inhibition at 1 µM: 0 to 25%
MAGL [2]
  inhibition at 1 µM: ≥ 75%
  IC50: 0.1 to 1 µM
ABHD6 [3]
  IC50: 1 to 10 µM
MAGL [4]
  inhibition at 1 µM: ≥ 75%

## O=C(O)[C@@H]1CCCN(c2cc(CN3CCN(C(=O)OC(C(F)(F)F)C(F)(F)F)CC3)cc(C(F)(F)F)c2)C1 [Example 66, (R)-1-(3-((4-(((1,1,1,3,3,3-hexafluoropropan-2-yl)oxy)carbonyl)piperazin-1-yl)methyl)-5-(trifluoromethyl)phenyl)piperidine-3-carboxylic acid]
ABHD6 [1]
  inhibition at 1 µM: ≥ 75%
MAGL [2]
  inhibition at 1 µM: ≥ 75%
  IC50: ≤ 0.1 µM
ABHD6 [3]
  IC50: ≤ 0.1 µM
MAGL [4]
  inhibition at 1 µM: ≥ 75%
